Blank lines part the entries; values can stand above or below the compound they belong to. Active and inactive are the calls of the source.
What was measured:
[1] = molecular target: Aryl hydrocarbon receptor (Homo sapiens, UniProt P35869); details: Potency;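 note: confirmatory quantitative high-throughput screen measuring activation of the AhR signaling pathway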
[2] = molecular target: Beta-2 adrenergic receptor (Homo sapiens, UniProt P07550); assay: ADRB2 activation measured by internalization – cell-based, FAP fluorogen, flow cytometry, cherry pick 1, dose response (AID 588763); type: functional
Chain of Beta-2 adrenergic receptor (P07550 whole entry, the tested form may be a part): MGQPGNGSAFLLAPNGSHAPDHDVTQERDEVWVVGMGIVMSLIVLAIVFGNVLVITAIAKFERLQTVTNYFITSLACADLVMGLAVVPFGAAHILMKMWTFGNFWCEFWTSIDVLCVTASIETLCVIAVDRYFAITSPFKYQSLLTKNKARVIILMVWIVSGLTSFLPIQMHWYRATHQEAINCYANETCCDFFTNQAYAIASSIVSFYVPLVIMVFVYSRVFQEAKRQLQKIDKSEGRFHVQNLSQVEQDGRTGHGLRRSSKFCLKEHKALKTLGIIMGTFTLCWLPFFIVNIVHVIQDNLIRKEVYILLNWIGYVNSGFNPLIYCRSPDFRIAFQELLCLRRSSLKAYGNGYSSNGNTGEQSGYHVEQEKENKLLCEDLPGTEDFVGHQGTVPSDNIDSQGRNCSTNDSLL

[3] = Fluorescence-based cell-based high throughput dose response assay for inhibitors of the interaction of nucleotide-binding oligomerization domain containing 2 (NOD2) and the receptor-interacting serine-threonine kinase 2 (RIPK2).; type: functional; details: Homo sapiens
Activin receptor type-1 = Activin receptor type-1 (Homo sapiens, UniProt Q04771); assay: Navigating the Kinome. Panel member name: ACVR1; type: functional
Chain of Activin receptor type-1 (Q04771 whole entry): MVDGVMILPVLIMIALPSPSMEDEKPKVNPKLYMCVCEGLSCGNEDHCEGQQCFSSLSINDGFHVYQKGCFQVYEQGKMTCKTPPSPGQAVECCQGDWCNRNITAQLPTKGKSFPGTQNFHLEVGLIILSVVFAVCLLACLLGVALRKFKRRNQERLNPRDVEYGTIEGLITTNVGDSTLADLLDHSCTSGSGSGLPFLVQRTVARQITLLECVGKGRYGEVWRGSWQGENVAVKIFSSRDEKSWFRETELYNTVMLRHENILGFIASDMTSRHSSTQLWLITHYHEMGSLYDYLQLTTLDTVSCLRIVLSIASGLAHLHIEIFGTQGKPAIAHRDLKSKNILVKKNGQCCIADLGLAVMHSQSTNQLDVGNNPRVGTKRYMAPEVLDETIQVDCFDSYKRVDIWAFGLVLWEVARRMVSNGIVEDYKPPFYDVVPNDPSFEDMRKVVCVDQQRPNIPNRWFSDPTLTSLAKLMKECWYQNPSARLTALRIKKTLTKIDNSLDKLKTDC

[4] = molecular target: cAMP-dependent protein kinase catalytic subunit alpha (Homo sapiens, UniProt P17612); type: functional
[5] = molecular target: MAP kinase-interacting serine/threonine-protein kinase 2 (Homo sapiens, UniProt Q9HBH9); type: functional
Chain of MAP kinase-interacting serine/threonine-protein kinase 2 (Q9HBH9 whole entry): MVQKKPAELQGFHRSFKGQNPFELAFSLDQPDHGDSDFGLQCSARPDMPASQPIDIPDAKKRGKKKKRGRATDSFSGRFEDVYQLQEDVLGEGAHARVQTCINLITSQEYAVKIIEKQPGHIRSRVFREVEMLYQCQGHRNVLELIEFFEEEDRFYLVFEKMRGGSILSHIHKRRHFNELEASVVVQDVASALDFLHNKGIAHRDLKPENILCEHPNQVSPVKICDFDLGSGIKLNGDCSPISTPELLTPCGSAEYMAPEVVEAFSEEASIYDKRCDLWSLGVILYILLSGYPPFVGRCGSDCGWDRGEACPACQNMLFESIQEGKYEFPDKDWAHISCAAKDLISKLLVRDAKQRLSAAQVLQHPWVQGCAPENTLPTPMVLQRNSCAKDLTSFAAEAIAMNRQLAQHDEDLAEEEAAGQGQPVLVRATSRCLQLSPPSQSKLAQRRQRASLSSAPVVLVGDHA

[6] = molecular target: Mitogen-activated protein kinase kinase kinase kinase 4 (Homo sapiens, UniProt O95819); type: functional
Chain of Mitogen-activated protein kinase kinase kinase kinase 4 (O95819 whole entry): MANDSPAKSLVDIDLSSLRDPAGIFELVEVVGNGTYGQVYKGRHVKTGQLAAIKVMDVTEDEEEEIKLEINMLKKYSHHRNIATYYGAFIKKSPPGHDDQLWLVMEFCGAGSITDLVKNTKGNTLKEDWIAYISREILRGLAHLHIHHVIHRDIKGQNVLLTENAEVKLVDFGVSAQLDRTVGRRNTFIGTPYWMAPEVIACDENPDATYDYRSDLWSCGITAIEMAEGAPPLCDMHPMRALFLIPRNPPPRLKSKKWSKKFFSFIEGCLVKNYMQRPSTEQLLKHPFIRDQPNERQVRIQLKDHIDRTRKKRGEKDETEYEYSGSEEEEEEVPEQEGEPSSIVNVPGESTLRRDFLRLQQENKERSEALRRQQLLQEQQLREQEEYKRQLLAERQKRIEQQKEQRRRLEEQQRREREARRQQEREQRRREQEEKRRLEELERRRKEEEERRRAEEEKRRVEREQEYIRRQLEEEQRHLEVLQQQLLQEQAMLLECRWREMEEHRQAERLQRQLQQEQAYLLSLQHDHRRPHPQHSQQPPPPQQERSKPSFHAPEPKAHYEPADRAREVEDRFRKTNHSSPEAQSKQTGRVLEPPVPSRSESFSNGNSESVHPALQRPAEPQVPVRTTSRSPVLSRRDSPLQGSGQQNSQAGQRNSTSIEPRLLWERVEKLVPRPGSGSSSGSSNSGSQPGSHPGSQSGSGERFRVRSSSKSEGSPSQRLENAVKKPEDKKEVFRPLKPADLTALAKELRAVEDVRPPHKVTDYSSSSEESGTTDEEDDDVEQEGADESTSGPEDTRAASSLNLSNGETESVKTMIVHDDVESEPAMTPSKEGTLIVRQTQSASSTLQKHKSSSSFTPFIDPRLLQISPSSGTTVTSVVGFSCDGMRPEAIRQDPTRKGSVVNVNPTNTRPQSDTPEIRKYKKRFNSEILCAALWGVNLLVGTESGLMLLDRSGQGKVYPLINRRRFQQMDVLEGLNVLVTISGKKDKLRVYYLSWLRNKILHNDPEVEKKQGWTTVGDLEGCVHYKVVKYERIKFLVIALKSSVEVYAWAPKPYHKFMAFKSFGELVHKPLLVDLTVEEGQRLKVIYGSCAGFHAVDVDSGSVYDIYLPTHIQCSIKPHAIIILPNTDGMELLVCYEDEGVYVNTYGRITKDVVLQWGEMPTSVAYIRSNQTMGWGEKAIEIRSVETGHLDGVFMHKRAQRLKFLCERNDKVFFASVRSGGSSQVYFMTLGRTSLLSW

[7] = molecular target: Serine/threonine-protein kinase pim-1 (Homo sapiens, UniProt P11309); type: functional
[8] = molecular target: Interleukin-1 receptor-associated kinase 4 (Homo sapiens, UniProt Q9NWZ3); type: functional
Chain of Interleukin-1 receptor-associated kinase 4 (Q9NWZ3 whole entry): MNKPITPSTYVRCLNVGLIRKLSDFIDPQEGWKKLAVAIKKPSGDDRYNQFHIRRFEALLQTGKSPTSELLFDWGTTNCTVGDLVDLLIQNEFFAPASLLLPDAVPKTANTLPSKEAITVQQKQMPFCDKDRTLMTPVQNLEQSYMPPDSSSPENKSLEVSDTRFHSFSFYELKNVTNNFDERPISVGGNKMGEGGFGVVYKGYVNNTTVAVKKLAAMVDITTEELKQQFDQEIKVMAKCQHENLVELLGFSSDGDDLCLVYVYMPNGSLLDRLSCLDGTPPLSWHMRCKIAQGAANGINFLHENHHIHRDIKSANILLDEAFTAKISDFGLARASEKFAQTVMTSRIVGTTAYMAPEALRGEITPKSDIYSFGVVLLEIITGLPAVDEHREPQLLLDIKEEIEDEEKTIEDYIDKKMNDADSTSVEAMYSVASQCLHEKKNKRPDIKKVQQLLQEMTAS

[9] = molecular target: Glycogen synthase kinase-3 beta (Homo sapiens, UniProt P49841); type: functional;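 note: value comes from a broad kinome profiling panel, with GSK3B as the panel member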
[10] = molecular target: Cell division cycle 7-related protein kinase (Homo sapiens, UniProt O00311); type: functional;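 note: value obtained from a kinome-wide kinase panel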
Chain of Cell division cycle 7-related protein kinase (O00311 whole entry): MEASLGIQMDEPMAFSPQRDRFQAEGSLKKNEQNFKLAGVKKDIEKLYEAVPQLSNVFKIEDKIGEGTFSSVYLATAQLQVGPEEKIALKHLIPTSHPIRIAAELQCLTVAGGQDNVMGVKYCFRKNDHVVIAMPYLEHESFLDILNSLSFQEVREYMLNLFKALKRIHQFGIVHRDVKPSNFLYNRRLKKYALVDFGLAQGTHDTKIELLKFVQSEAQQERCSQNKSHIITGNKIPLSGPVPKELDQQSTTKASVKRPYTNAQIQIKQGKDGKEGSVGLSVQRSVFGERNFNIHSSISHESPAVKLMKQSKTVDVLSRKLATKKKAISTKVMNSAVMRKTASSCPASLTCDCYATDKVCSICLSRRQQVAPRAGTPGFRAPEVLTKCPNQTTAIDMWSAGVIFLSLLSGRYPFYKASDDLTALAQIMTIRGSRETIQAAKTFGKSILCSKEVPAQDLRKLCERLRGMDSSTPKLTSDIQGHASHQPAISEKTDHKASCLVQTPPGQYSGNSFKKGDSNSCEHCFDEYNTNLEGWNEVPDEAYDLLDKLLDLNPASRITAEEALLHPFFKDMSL

[11] = molecular target: Melanin-concentrating hormone receptor 1 (Homo sapiens, UniProt Q99705); assay: Late-stage fluorescence-based counterscreen for antagonists of the G-protein coupled receptor 7 (GPR7): cell-based dose response assay to identify antagonists of the melanin-concentrating hormone receptor 1 (MCHR1) Set 5.; type: functional
[12] = molecular target: Neuropeptides B/W receptor type 1 (Homo sapiens, UniProt P48145); assay: human NPBW1 receptor blockade, IC50 – cell-based, fluorescence, dose response, set 5, late-stage follow-up (AID 588566); type: functional
Chain of Neuropeptides B/W receptor type 1 (P48145 whole entry): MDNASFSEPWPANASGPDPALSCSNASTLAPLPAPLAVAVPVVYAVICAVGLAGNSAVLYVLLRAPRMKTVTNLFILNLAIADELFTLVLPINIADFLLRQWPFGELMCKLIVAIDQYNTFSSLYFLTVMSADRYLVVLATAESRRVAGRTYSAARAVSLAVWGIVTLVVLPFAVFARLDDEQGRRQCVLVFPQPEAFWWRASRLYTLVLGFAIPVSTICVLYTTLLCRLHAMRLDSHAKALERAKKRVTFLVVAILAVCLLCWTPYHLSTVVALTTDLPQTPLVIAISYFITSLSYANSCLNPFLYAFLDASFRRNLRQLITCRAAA

[13] = molecular target: T1, Apoptotic protease-activating factor 1 (Homo sapiens, UniProt O14727); assay: SAR analysis of small molecule Activators of Apaf-1 in a Fluorescent assay.; type: functional; details: read-out: EC50_Mean;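 note: caspase-3 cleavage of fluorogenic Rh110 DEVD substrate downstream of apoptosome activation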
T1 sequence (O14727 whole entry): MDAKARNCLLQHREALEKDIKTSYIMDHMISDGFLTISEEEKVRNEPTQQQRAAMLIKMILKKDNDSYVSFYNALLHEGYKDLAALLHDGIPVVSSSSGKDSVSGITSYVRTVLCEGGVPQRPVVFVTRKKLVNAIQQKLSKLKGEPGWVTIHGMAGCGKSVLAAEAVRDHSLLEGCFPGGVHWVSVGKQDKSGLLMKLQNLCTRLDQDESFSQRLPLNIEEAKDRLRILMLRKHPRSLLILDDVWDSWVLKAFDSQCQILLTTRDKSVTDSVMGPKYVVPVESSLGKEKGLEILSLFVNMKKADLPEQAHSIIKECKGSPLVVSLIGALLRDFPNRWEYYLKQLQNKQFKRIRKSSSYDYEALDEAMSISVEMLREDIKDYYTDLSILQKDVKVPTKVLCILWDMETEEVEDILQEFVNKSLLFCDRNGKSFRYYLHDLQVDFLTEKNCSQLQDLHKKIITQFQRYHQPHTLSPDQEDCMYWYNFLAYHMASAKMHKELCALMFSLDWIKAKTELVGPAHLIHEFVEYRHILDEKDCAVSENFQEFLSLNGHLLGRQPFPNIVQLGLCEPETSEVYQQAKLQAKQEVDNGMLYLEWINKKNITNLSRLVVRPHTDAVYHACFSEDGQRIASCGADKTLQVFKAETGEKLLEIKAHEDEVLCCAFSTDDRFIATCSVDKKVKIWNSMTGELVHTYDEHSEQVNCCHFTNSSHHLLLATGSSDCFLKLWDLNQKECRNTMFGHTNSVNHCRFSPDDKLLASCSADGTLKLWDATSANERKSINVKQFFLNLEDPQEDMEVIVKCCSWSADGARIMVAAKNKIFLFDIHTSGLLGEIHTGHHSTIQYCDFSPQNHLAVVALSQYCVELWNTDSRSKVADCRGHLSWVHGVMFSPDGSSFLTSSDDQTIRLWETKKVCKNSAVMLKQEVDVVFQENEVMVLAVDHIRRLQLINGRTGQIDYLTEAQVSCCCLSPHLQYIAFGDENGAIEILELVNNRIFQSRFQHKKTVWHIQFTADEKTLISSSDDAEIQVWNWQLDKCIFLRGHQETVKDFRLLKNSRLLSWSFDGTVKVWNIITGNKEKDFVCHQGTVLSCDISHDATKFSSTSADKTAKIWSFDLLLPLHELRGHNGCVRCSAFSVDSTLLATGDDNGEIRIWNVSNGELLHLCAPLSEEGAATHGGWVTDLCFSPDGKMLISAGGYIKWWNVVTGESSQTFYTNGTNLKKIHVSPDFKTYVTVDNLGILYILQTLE

Chain of Aryl hydrocarbon receptor (P35869 whole entry): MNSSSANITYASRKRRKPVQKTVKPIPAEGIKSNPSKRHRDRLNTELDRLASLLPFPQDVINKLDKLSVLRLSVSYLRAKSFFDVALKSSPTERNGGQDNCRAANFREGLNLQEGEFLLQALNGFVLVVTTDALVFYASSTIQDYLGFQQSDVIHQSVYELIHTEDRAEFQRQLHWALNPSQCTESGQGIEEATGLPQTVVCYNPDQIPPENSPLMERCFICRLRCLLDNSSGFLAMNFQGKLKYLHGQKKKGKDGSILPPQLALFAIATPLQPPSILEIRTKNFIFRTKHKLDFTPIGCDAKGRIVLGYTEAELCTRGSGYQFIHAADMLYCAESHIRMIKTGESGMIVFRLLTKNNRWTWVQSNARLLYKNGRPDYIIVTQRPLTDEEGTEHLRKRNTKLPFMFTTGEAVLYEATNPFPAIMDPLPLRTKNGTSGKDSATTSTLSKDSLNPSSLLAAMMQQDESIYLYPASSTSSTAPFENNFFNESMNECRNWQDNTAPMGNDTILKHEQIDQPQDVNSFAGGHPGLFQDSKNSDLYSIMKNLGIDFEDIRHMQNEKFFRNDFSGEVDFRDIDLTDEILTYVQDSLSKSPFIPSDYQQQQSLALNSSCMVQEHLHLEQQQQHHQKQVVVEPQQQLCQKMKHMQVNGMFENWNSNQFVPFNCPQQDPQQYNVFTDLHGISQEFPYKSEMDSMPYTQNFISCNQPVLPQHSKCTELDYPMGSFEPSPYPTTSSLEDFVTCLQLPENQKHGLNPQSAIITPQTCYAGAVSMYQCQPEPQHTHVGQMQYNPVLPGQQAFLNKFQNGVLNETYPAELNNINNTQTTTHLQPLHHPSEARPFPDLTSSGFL

- AC50 [1]: 10000 nM (inconclusive)
SMILES: Cc1cc2nc(N)sc2cc1C

SMILES: N#Cc1cccc(NC(=O)COC(=O)c2ccccc2C(=O)c2ccc(Cl)c([N+](=O)[O-])c2)c1
- EC50 [2]: 5270 nM (inactive)
- IC50 [3]: 1990 nM (active)

- Ki (Activin receptor type-1): 1260 nM (active)
SMILES: Cn1c(=O)n(-c2ccc(C(C)(C)C#N)cc2)c2c3cc(-c4cnc5ccccc5c4)ccc3ncc21 [DACTOLISIB]

- Ki [4]: 1000 nM (active)
- Ki [5]: 63.1 nM (active)
- Ki [6]: 15.8 nM (active)
- Ki [7]: 158 nM (active)
- Ki [8]: 1000 nM (active)
- Ki [9]: 50.1 nM (active)
- Ki [10]: 6.31 nM (active)
SMILES: CCCCNc1cc(-c2c[nH]c3ncccc23)ncn1

- IC50 [11]: > 20000 nM (inactive)
- IC50 [12]: > 20000 nM (inactive)
SMILES: O=c1c(Oc2ccc3c(c2)OCO3)c(Cl)cnn1C1c2ccccc2-c2ccccc21

- EC50 [13]: > 100000 nM (inactive)
SMILES: CO[C@@H]1CS(=O)(=O)C2C(c3ccc(F)cc3)=NOC21 (some centres undefined)

— ChEMBL document CHEMBL1201862, “PubChem BioAssay data set” (2004)
